Series [1] has as its target T1, Protein deacetylase HDAC6 (Homo sapiens, UniProt Q9UBN7).
T1 sequence (Q9UBN7 whole entry): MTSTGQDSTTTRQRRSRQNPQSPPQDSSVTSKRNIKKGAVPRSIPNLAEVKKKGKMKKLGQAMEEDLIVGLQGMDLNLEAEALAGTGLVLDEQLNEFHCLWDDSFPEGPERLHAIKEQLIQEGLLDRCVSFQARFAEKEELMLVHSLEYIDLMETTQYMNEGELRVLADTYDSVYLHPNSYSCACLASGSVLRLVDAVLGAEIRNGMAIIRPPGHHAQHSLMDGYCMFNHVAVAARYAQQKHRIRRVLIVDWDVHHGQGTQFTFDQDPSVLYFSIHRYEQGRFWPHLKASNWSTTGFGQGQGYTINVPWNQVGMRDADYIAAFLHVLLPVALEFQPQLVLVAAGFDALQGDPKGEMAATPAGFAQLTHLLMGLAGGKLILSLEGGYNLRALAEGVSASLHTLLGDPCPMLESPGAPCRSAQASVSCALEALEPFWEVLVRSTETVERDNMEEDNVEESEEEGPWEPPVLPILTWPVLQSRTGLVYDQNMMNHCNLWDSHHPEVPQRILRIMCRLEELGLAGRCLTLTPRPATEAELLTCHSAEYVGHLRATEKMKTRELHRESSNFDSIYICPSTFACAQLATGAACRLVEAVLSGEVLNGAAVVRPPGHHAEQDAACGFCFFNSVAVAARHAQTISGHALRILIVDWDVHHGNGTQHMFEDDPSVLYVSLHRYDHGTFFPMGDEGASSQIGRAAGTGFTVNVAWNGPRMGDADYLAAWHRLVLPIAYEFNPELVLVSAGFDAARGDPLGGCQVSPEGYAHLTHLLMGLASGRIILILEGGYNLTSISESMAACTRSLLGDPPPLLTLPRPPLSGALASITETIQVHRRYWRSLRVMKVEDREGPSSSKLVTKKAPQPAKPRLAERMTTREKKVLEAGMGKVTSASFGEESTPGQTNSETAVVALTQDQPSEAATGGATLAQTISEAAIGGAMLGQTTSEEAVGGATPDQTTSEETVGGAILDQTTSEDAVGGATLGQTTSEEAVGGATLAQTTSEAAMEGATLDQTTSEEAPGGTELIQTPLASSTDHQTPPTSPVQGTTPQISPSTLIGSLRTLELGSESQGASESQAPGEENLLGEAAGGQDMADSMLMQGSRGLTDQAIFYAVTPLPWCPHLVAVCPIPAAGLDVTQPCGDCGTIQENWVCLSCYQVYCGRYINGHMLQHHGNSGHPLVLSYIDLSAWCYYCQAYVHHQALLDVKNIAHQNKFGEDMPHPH
Nature of the series: Inhibition of human recombinant HDAC6 using fluorogenic substrate measured after 30 mins.

The target of the next series is Histone deacetylase 1 (Homo sapiens, UniProt Q13547). Nature of the series: Inhibition of human recombinant HDAC1 using fluorogenic substrate measured after 30 mins.
Histone deacetylase 1, sequence (Q13547 whole entry): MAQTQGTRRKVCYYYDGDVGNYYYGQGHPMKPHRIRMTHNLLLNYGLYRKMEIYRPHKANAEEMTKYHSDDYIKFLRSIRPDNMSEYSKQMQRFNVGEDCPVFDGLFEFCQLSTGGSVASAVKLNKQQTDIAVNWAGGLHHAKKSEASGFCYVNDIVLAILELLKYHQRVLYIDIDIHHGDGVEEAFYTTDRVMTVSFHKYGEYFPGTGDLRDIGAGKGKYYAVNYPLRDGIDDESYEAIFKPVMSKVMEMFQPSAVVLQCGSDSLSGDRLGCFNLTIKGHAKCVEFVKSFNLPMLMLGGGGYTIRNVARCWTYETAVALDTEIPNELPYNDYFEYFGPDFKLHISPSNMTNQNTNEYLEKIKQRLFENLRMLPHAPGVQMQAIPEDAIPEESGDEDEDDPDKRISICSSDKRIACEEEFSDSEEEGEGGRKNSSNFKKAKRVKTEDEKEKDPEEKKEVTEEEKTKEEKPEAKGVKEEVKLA
Series [2] can be described thus: Cytotoxicity against human SH-SY5Y cells assessed as cell viability measured after 36 hrs by CCK8 assay. (Formazan colour is commonly taken as a measure of viable cells.)
In a further series the target is Histone deacetylase 2 (Homo sapiens, UniProt Q92769). Nature of the series: Inhibition of human recombinant HDAC2 using fluorogenic substrate measured after 30 mins.
Histone deacetylase 2, sequence (Q92769 whole entry): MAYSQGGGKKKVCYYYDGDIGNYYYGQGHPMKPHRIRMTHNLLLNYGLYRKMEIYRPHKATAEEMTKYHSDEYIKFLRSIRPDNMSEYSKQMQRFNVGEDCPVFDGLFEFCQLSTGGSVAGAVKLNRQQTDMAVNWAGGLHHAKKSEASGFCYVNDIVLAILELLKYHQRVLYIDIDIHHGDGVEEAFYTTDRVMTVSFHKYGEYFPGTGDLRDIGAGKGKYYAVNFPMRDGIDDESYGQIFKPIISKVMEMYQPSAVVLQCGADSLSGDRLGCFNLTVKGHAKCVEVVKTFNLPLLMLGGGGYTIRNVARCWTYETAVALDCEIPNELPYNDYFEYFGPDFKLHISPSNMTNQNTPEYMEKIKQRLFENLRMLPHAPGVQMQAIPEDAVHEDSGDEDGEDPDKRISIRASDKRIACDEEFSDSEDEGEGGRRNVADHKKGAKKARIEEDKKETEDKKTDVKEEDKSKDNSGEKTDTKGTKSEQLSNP
In the next series the target is Histone deacetylase 4 (Homo sapiens, UniProt P56524). The series can be described thus: Inhibition of human recombinant HDAC4 using fluorogenic substrate measured after 30 mins.
Histone deacetylase 4, sequence (P56524 whole entry): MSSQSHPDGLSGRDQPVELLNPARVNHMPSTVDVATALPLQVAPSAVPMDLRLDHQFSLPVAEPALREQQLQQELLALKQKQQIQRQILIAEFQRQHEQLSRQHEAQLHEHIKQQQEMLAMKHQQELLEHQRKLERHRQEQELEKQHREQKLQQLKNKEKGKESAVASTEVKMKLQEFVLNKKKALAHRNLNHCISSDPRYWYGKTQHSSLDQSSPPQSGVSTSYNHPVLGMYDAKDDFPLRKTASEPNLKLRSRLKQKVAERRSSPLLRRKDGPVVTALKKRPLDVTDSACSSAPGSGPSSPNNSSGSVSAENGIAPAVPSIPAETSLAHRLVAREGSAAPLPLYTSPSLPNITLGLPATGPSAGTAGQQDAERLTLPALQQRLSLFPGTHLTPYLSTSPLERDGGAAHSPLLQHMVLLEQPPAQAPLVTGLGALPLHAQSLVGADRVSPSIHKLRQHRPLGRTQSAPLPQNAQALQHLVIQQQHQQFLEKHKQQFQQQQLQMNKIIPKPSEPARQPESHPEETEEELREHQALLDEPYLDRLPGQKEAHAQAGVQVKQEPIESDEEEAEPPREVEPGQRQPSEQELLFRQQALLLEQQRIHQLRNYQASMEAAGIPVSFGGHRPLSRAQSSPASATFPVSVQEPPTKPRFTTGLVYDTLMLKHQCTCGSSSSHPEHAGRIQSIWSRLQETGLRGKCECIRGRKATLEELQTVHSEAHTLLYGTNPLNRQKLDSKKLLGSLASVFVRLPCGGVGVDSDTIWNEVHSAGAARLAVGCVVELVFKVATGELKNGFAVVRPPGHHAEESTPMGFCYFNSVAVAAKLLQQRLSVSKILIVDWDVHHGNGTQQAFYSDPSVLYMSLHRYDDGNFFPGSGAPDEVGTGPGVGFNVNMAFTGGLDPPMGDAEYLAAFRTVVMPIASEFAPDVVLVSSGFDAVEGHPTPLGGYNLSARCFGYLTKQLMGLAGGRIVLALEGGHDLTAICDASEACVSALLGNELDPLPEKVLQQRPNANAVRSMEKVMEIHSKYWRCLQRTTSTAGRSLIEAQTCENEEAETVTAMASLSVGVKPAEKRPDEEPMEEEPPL
A further series deals with T2, Histone deacetylase 8 (Homo sapiens, UniProt Q9BY41).
T2 sequence (Q9BY41 whole entry): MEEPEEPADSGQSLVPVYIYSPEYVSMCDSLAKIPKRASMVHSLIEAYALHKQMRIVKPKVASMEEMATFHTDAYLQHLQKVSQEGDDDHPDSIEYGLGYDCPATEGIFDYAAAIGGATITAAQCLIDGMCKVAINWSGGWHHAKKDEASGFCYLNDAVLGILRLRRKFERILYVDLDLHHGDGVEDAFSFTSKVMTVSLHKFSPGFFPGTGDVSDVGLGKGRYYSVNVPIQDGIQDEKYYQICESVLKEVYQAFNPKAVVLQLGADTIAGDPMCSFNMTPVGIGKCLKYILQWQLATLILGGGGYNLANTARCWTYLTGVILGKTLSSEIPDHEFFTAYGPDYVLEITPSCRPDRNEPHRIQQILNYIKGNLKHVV
The series can be described thus: Inhibition of human recombinant HDAC8 using fluorogenic substrate measured after 30 mins.

A further series has as its target T3, Histone deacetylase 11 (Homo sapiens, UniProt Q96DB2).
T3 sequence (Q96DB2 whole entry): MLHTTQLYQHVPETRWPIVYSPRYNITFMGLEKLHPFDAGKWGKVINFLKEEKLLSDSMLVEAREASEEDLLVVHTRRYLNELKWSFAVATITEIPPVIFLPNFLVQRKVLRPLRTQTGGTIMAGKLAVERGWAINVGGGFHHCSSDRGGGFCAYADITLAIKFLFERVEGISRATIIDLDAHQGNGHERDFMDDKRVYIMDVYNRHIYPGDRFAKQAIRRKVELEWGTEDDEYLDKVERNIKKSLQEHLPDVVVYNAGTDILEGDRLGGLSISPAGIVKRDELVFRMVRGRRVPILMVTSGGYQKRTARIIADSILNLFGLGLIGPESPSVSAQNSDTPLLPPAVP
The series can be described thus: Inhibition of human recombinant HDAC11 using fluorogenic substrate measured after 30 mins.

The target of series [3] is T4, Protein deacetylase HDAC6 (Homo sapiens) (UniProt Q9UBN7).
T4 sequence (whole entry): T1 sequence (Q9UBN7 whole entry)
Nature of the series: Inhibition of HDAC6 in human HeLa cells assessed as acetylated histone H3 level at 0.3 to 3 uM measured after 24 hrs by immunoblotting analysis. The following applies: dose 0.3-3 µM. It is filed as cell-based.

Series [4] concerns the target T4, Protein deacetylase HDAC6 (Homo sapiens). The series can be described thus: Inhibition of HDAC6 in human SH-SY5Y cells assessed as acetylated histone H3 level at 0.3 to 3 uM measured after 24 hrs by immunoblotting analysis. It is filed as cell-based. The following applies: dose 0.3-3 µM. (In general: In western blotting, separated proteins are transferred to a membrane and probed.)

Structures are written as SMILES. Activity calls are given as the source filed them. No cut-off for these calls is given here.

A word on the IC50: it is the concentration needed to halve the response being measured. For the compound `O=C(NO)c1ccc(Cn2cnc(-c3cccs3)n2)cc1`, the results for the IC50 (in series [1]; on Histone deacetylase 1) were 10.4 nM and 249 nM, respectively.
For `O=C(NO)c1ccc(Cn2cnc(-c3ccccc3)n2)cc1` the same measures were 9.11 nM and 206 nM.
For `O=C(NO)c1ccc(Cn2cnc(-c3cccc(OC(F)(F)F)c3)n2)cc1` the same measures were 13.3 nM and 212 nM.
For `O=C(NO)c1ccc(Cn2cnc(-c3cc(F)cc(F)c3)n2)cc1`, the half-maximal inhibitory concentration (IC50) amounted to 19.6 nM in series [1] and 256 nM on Histone deacetylase 1.
For `O=C(NO)c1ccc(Cn2cnc(-c3ccccc3)n2)nc1`, the values for the IC50 (in series [1]; on Histone deacetylase 1) were 20.6 nM and 431 nM, respectively.
For `O=C(NO)c1ccc(Cn2cnc(-c3cccc(-c4ccccc4)c3)n2)cc1` the same measures were 11.1 nM and 150 nM.
`CN1CCc2c(c3ccccc3n2Cc2ccc(C(=O)NO)cc2)C1` [TUBASTATIN A]: in [2], the IC50 at 36 h stood at […].
Turning to `O=C(NO)c1ccc(Cn2cncn2)cc1`, the IC50 in [1] is 91.8 nM; on Histone deacetylase 1, 1440 nM.
Turning to `O=C(NO)c1ccc(Cn2cnc(-c3cccc(Cl)c3)n2)cc1`, the half-inhibitory concentration (IC50) in series [1] worked out at 6.4 nM; on Histone deacetylase 1 it was 111 nM.
Taken in the same sequence, the figures for `O=C(NO)c1cccc(Cn2ncnc2-c2ccccc2)c1` were 152 nM and 18300 nM.
In the case of `O=C(NO)c1ccc(Cn2cnc(Br)n2)cc1`, the IC50 in [1] came out at 44.1 nM; on Histone deacetylase 1 it was 926 nM.
Taken in the same sequence, the figures for `O=C(NO)c1ccc(Cn2cnc(-c3cccc(C(F)(F)F)c3)n2)cc1` were 4.57 nM and 122 nM.
For the compound `O=C(NO)c1ccc(Cn2cnc(-c3ccccc3F)n2)c(F)c1`, the IC50 turned out to be 7.09 nM in [1]; 299 nM on Histone deacetylase 1; 509 nM at Histone deacetylase 2; 4.04 µM at Histone deacetylase 4; 813 nM at Histone deacetylase 8; 8.09 µM at Histone deacetylase 11. For the same compound, in series [2], the IC50 at 36 h amounted to 8.21 µM. Besides, the inhibition entry in [3] and in series [4] was “Active” in each case.
With `O=C(NO)c1ccc(Cn2ncnc2-c2cccs2)cc1`, the IC50 in [1] was 18.3 nM; at Histone deacetylase 1, 427 nM.
For `O=C(NO)c1ccc(Cn2cnc(-c3cccc(F)c3)n2)cc1` the same measures were 8.73 nM and 268 nM.
As to `O=C(NO)c1ccc(Cn2cnc(-c3ccccc3F)n2)cc1`, the IC50 in series [1] amounted to 10 nM; on Histone deacetylase 1, 256 nM.
Take `O=C(NO)c1ccc(Cn2cnc(-c3c(F)cccc3F)n2)cc1`: the IC50 in series [1] was determined as 14.3 nM; at Histone deacetylase 1, 369 nM.
For `O=C(NO)c1ccc(Cn2cnc(-c3ccc(F)cc3)n2)cc1` the same measures were 12.6 nM and 269 nM.
Taken in the same sequence, the figures for `O=C(NO)c1ccc(Cn2cnc(-c3cccnc3)n2)cc1` were 27.9 nM and 356 nM.
For `COc1cccc(-c2ncn(Cc3ccc(C(=O)NO)cc3)n2)c1`, the IC50 worked out at 11.5 nM in series [1] and 167 nM at Histone deacetylase 1.
For `O=C(NO)c1cccc(Cn2cnc(-c3ccccc3)n2)c1` the same measures were 1300 nM and 38800 nM.
With `O=C(NO)c1cccc(Cn2cncn2)c1`, the values for the IC50 (in [1]; on Histone deacetylase 1) were 11400 nM and 23200 nM, respectively.
For `O=C(NO)c1ccc(Cn2ncnc2-c2ccccc2)cc1` the same measures were 16.9 nM and 341 nM.
For `Cc1cccc(-c2ncn(Cc3ccc(C(=O)NO)cc3)n2)c1` the same measures were 14.7 nM and 168 nM.
Taken in the same sequence, the figures for `O=C(NO)c1ccc(Cn2cnc(-c3cccc(O)c3)n2)cc1` were 12.3 nM and 197 nM.
Regarding `O=C(NO)c1ccc(Cn2ncnc2-c2ccccc2F)cc1`, the IC50 in series [1] was found to be 11.8 nM; at Histone deacetylase 1 it was 605 nM.
On to `O=C(NO)c1ccc(Cn2cnc(-c3ccccc3)n2)c(F)c1`, for which the results for the IC50 (in [1]; on Histone deacetylase 1) were 12.4 nM and 455 nM, respectively.
